Measured values taken from patent publication US20260028390A1, “ALPHA1-ANTITRYPSIN FOR USE IN THE TREATMENT OF DISEASES OR DISORDERS OF THE NERVOUS SYSTEM SUCH AS CHRONIC INFLAMMATORY DEMYELINATING POLYNEUROPATHY” (Ageronix SA, priority 2022, published 2026).

System: HMC3-MHCII^Luc cells
Assay: RNAseq differential gene expression / GSEA in AAT-treated resting and IFNγ-activated microglia
Format: cell-based, human
Experimental: • A) Human microglial HMC3-MHCII^Luc cells were plated at day 0, presented IFNγ at day 1 until day 2 and measurement of the luciferase activity and cell viability were done at day 4. • B) AATs were applied from day 0 to day 4 on HMC3-MHCII^Luc cells. Activation was measured by the activity of MHCII-driven luciferase and represented as percentage of IFNγ control for all conditions. All conditions were performed in triplicates, error bars represent standard deviation. • C) Bulk RNA extraction was performed on the same HMC3-MHCII^Luc cultures. Quality control (QC) were applied to RNA before sequencing. QC of the sequencing was done prior to mapping on the human genome. Mapped reads were counted, and differential gene expression was measured between the conditions (see Table 1-10). (FIGS. 3A, 3B and 3C)
RNAseq data from plasma-derived and recombinant AATs were pooled, normalized and analyzed through Gene Set Enrichment Analysis (GSEA) (https://www.gsea-msigdb.org/gsea/index.jsp; Subramanian, A., et al. Proc. Natl. Acad. Sci. USA, 102 (43): 15545-15550, 2005.). […] Importantly, both the IFNγ and inflammatory responses were dampened by AAT. However, the downregulation of the inflammatory response genes in (C) was just under significance.
Tables of genes related to antigen presentation (Table 1), cytokine signaling (Table 2), interferon signaling (Table 3) and complement activation (Table 4). Inflammatory top gene (FC>2; p-value<0.05; left column), were defined by differential expression between untreated and IFNγ-treated cells (inflammation; middle column).
HMC3-MHCII^Luc and HMC3-MHCII^Luc; Ubi^AAT (endogenous AAT) cell lines were seeded into 96-well plates at a density of approximately 2500 cells/well. HMC3-MHCII^Luc cell line was plated and was added plasma-derived AAT and recombinant AATs (produced in CHO cells, AAT 1 and AAT 2) 3h later and at ranged concentration (1; 10 or 25 μM). 24h after, still in the presence of exogenous or endogenous AAT, microglial activation was induced with a 24h-long IFNγ presentation (10 ng/ml). IFNγ was then removed and both HMC3-MHCII^Luc and HMC3-MHCII^Luc; Ubi^AAT cells were cultured for 48h in exogenous or endogenous presence of AAT before cell cultures were beeing assessed for cell viability and activation (See FIGS. 3A, 3B, 3C and 4A,4B, 4C).
RNA samples from plasma-derived AAT and recombinant AAT Nr. 2 were checked for quality (2100 Bioanalyzer, Agilent) and libraries prepared with Truseq RNA Library Kit (Illumina, RS-122-2001). Libraries were sequenced (HiSeq 4000, Illumina) controlled for the quality of sequencing (FastQC), mapped on the human genome (STAR v.2.7.0f; UCSC hg38), reads were counted (HTSeq v0.9.1) and the differential expression analysis was performed with the R/Bioconductor package (edgeR 1.30.1.).

[1] = AAT (left block), GBS risk gene
[2] = AAT, resting microglia, AD risk gene
[3] = AAT, resting microglia, MCT*/PN risk gene
[4] = AAT, resting microglia, MS risk gene
[5] = AAT, resting microglia, PD risk gene
[6] = FC AAT, resting microglia, M2 gene

## alpha1-antitrypsin (AAT) protein
[1]
  CDC42 expression FC AAT: −1.35
  FOS expression FC AAT: −2.31
  GLRX5 expression FC AAT: 1.12
  GUK1 expression FC AAT: 1.57
  HAGH expression FC AAT: 1.40
  HMGB2 expression FC AAT: −1.20
  MARCKS expression FC AAT: −2.06
  PKN2 expression FC AAT: −1.47
  SENP6 expression FC AAT: −1.47
  SMCHD1 expression FC AAT: −1.39
  ZNF12 expression FC AAT: −1.26
AAT treatment in absence or presence of IFNγ, pooled plasma-derived and recombinant AAT RNAseq data
  IFNγ and inflammatory responses (GSEA gene families): dampened
[2]
  ABCA7 expression FC: 1.75
  APOE expression FC: 1.74
  BIN1 expression FC: 1.33
  CD2AP expression FC: −1.39
  CLU expression FC: −1.30
  PICALM expression FC: −1.48
  PSEN2 expression FC: 1.45
  TREM2 expression FC: 2.22
[3]
  ARHGEF10 expression FC: 1.19
  CCT5 expression FC: −1.17
  DNAJB2* expression FC: 1.39
  DST expression FC: −1.35
  DYNC1H1* expression FC: −1.40
  FIG4* expression FC: −1.42
  GAN* expression FC: −1.21
  GARS* expression FC: −1.21
  GDAP1* expression FC: −1.54
  GNB4* expression FC: −1.56
  HSPB1* expression FC: 1.67
  IFRD1 expression FC: 1.23
  IGHMBP2* expression FC: 1.39
  KIF1A expression FC: 2.76
  KIF1B* expression FC: −1.21
  LRSAM1* expression FC: 1.36
  MTMR2* expression FC: −1.36
  PLEKHG5* expression FC: 1.49
  SBF2 expression FC: −1.20
  SCN9A expression FC: −1.50
  SCN11A expression FC: 4.49
  SETX expression FC: −1.23
  SPTLC1 expression FC: −1.23
  TFG* expression FC: −1.28
  TRIM2* expression FC: −1.39
  TRPV4* expression FC: 1.92
  WNK1 expression FC: −1.14
[4]
  AGAP2 expression FC: 1.30
  AHI1 expression FC: −1.46
  CBLB expression FC: −1.24
  CD40 expression FC: 1.17
  CD58 expression FC: −1.61
  CDC37 expression FC: 1.26
  CYP24A1 expression FC: 2.55
  EXTL2 expression FC: −1.76
  HLA-A expression FC: 1.48
  HLA-DRB1 expression FC: −1.47
  METTL1 expression FC: 1.22
  MPV17L2 expression FC: 1.31
  PTGER4 expression FC: −1.29
  PTPRK expression FC: −1.38
  RPS6KB1 expression FC: −1.23
  SLC30A7 expression FC: −1.77
[5]
  ATP13A2 expression FC: 1.42
  DNAJC6 expression FC: −1.14
  DNAJC13 expression FC: −1.37
  GIGYF2 expression FC: −1.16
  LRP10 expression FC: 1.29
  LRRK2 expression FC: −3.98
  PLA2G6 expression FC: 1.55
  SYNJ1 expression FC: −1.33
  TMEM230 expression FC: −1.42
  VPS13C expression FC: −1.41
  VPS35 expression FC: −1.42
[6]
  ACAN expression FC: 1.37
  AP2A2 expression FC: 1.26
  APLP1 expression FC: 1.41
  APRT expression FC: 1.16
  BAIAP2 expression FC: 1.45
  C16orf45 expression FC: 1.31
  CHPF expression FC: 1.80
  COL1A1 expression FC: 1.58
  COL11A1 expression FC: 1.14
  DBN1 expression FC: 1.42
  ENG expression FC: 1.29
  EXTL1 expression FC: 2.19
  FEZ1 expression FC: 1.45
  FGD3 expression FC: 1.76
  FOXC1 expression FC: 1.26
  FZD2 expression FC: 1.39
  FZD7 expression FC: 1.24
  GADD45GIP1 expression FC: 1.55
  GREM1 expression FC: 1.69
  GUK1 expression FC: 1.57
  HSPG2 expression FC: 1.58
  IGFBP2 expression FC: 1.63
  ITGA11 expression FC: 1.65
  MARCH4 expression FC: 1.28
  MBOAT7 expression FC: 1.44
  METRN expression FC: 2.23
  MIF expression FC: 1.83
  MMP1 expression FC: 2.51
  MOSPD3 expression FC: 1.51
  MXRA8 expression FC: 1.40
  NID1 expression FC: 1.16
  NTN4 expression FC: 1.25
  PAPPA expression FC: 1.24
  PLEC expression FC: 1.69
  PLTP expression FC: 1.28
  PREX1 expression FC: 1.25
  PRSS36 expression FC: 1.58
  PTPRS expression FC: 1.27
  RAB3IL1 expression FC: 1.55
  RASA4B expression FC: 1.46
  RASAL1 expression FC: 1.52
  SART1 expression FC: 1.44
  SEMA3B expression FC: 1.50
  SERPINH1 expression FC: 1.21
  SLC22A5 expression FC: 1.22
  STC2 expression FC: 1.42
  TAGLN expression FC: 1.37
  TBCD expression FC: 1.26
  TEKT4P2 expression FC: 2.46
  TGFB1I1 expression FC: 1.31
  TNFRSF1B expression FC: 1.46
  TTC9 expression FC: 1.65
  ZIC2 expression FC: 2.42
FC inflammation + AAT, M2 gene
  AHNAK2 expression FC: 1.40
  ANPEP expression FC: 1.25
  ARHGDIB expression FC: 1.28
  BAIAP2 expression FC: 1.24
  BGN expression FC: 1.27
  CHPF expression FC: 1.58
  CLIP3 expression FC: 1.25
  CLMP expression FC: 1.22
  COL11A1 expression FC: 1.16
  DBN1 expression FC: 1.31
  ENG expression FC: 1.35
  EXTL1 expression FC: 1.78
  FADS2 expression FC: 1.20
  FAT1 expression FC: 1.34
  FEZ1 expression FC: 1.34
  FGD3 expression FC: 2.31
  FZD2 expression FC: 1.37
  FZD7 expression FC: 1.36
  GADD45GIP1 expression FC: 1.51
  GATA6 expression FC: 1.47
  GREM1 expression FC: 1.56
  GUK1 expression FC: 1.31
  HCK expression FC: 1.44
  HLA-DRB5 expression FC: 2.09
  HSPG2 expression FC: 1.41
